{
  "source": "patent US11219603B2",
  "about": "“Stable dosage form of etidronate-cytarabine conjugate, and use thereof” (MAXWELL BIOTECH GROUP LTD., priority 2015, dated 2022)",
  "assay": "Effect of MgCl2 on hydrolysis of MBC-11 in solution (formation of Ara-CMP at 25° C.)",
  "assay_type": "physicochemical",
  "conditions": "for Content of Ara-CMP (%): 25° C.",
  "description": "Studies were performed, where magnesium chloride was investigated as a stabilizer against hydrolytic decomposition. MgCl2 was added to solutions of MBC-11 conjugate in water, tartrate buffer (50 mmol/L, pH 5) and succinate buffer (50 mmol/L, pH 5). The following molar ratios of MgCl2 to MBC-11 were used: (1:2), (1:1), (2:1) and higher (˜12:1). […]",
  "data": [
    {"smiles": "CC(O)(P(=O)(O)O)P(=O)(O)OP(=O)(O)OC[C@H]1O[C@@H](n2ccc(N)nc2=O)[C@@H](O)[C@@H]1O", "note": "(stereo partly drawn) [MBC-11]", "values": [
      {"measurement": "Content of Ara-CMP (%)", "setting": "Succinate buffer, MgCl2 0.87 mmol/L, MgCl2:MBC-11 1:2, t = 0 h", "result": 2.6, "unit": "%"},
      {"measurement": "Content of Ara-CMP (%)", "setting": "Succinate buffer, MgCl2 0.87 mmol/L, MgCl2:MBC-11 1:2, t = 4 h", "result": 3.5, "unit": "%"},
      {"measurement": "Content of Ara-CMP (%)", "setting": "Succinate buffer, MgCl2 0.87 mmol/L, MgCl2:MBC-11 1:2, t = 8 h", "result": 4.4, "unit": "%"},
      {"measurement": "Content of Ara-CMP (%)", "setting": "Succinate buffer, MgCl2 0.87 mmol/L, MgCl2:MBC-11 1:2, t = 24 h", "result": 7.9, "unit": "%"},
      {"measurement": "Content of Ara-CMP (%)", "setting": "Succinate buffer, MgCl2 1.73 mmol/L, MgCl2:MBC-11 1:1, t = 0 h", "result": 2.5, "unit": "%"},
      {"measurement": "Content of Ara-CMP (%)", "setting": "Succinate buffer, MgCl2 1.73 mmol/L, MgCl2:MBC-11 1:1, t = 4 h", "result": 3.1, "unit": "%"},
      {"measurement": "Content of Ara-CMP (%)", "setting": "Succinate buffer, MgCl2 1.73 mmol/L, MgCl2:MBC-11 1:1, t = 8 h", "result": 3.7, "unit": "%"},
      {"measurement": "Content of Ara-CMP (%)", "setting": "Succinate buffer, MgCl2 1.73 mmol/L, MgCl2:MBC-11 1:1, t = 24 h", "result": 5.6, "unit": "%"},
      {"measurement": "Content of Ara-CMP (%)", "setting": "Succinate buffer, MgCl2 3.5 mmol/L, MgCl2:MBC-11 2:1, t = 0 h", "result": 2.6, "unit": "%"},
      {"measurement": "Content of Ara-CMP (%)", "setting": "Succinate buffer, MgCl2 3.5 mmol/L, MgCl2:MBC-11 2:1, t = 4 h", "result": 3.1, "unit": "%"},
      {"measurement": "Content of Ara-CMP (%)", "setting": "Succinate buffer, MgCl2 3.5 mmol/L, MgCl2:MBC-11 2:1, t = 8 h", "result": 3.7, "unit": "%"},
      {"measurement": "Content of Ara-CMP (%)", "setting": "Succinate buffer, MgCl2 3.5 mmol/L, MgCl2:MBC-11 2:1, t = 24 h", "result": 5.8, "unit": "%"},
      {"measurement": "Content of Ara-CMP (%)", "setting": "Succinate buffer, MgCl2 20 mmol/L, MgCl2:MBC-11 ~12:1, t = 0 h", "result": 2.5, "unit": "%"},
      {"measurement": "Content of Ara-CMP (%)", "setting": "Succinate buffer, MgCl2 20 mmol/L, MgCl2:MBC-11 ~12:1, t = 4 h", "result": 2.7, "unit": "%"},
      {"measurement": "Content of Ara-CMP (%)", "setting": "Succinate buffer, MgCl2 20 mmol/L, MgCl2:MBC-11 ~12:1, t = 8 h", "result": 2.9, "unit": "%"},
      {"measurement": "Content of Ara-CMP (%)", "setting": "Succinate buffer, MgCl2 20 mmol/L, MgCl2:MBC-11 ~12:1, t = 24 h", "result": 3.6, "unit": "%"},
      {"measurement": "Content of Ara-CMP (%)", "setting": "Succinate buffer, no MgCl2, t = 0 h", "result": 3.5, "unit": "%"},
      {"measurement": "Content of Ara-CMP (%)", "setting": "Succinate buffer, no MgCl2, t = 4 h", "result": 5.0, "unit": "%"},
      {"measurement": "Content of Ara-CMP (%)", "setting": "Succinate buffer, no MgCl2, t = 8 h", "result": 6.4, "unit": "%"},
      {"measurement": "Content of Ara-CMP (%)", "setting": "Succinate buffer, no MgCl2, t = 24 h", "result": 11.5, "unit": "%"},
      {"measurement": "Content of Ara-CMP (%)", "setting": "Tartrate buffer, MgCl2 0.87 mmol/L, MgCl2:MBC-11 1:2, t = 0 h", "result": 2.5, "unit": "%"},
      {"measurement": "Content of Ara-CMP (%)", "setting": "Tartrate buffer, MgCl2 0.87 mmol/L, MgCl2:MBC-11 1:2, t = 4 h", "result": 3.5, "unit": "%"},
      {"measurement": "Content of Ara-CMP (%)", "setting": "Tartrate buffer, MgCl2 0.87 mmol/L, MgCl2:MBC-11 1:2, t = 8 h", "result": 4.5, "unit": "%"},
      {"measurement": "Content of Ara-CMP (%)", "setting": "Tartrate buffer, MgCl2 0.87 mmol/L, MgCl2:MBC-11 1:2, t = 24 h", "result": 8.4, "unit": "%"},
      {"measurement": "Content of Ara-CMP (%)", "setting": "Tartrate buffer, MgCl2 1.73 mmol/L, MgCl2:MBC-11 1:1, t = 0 h", "result": 2.6, "unit": "%"},
      {"measurement": "Content of Ara-CMP (%)", "setting": "Tartrate buffer, MgCl2 1.73 mmol/L, MgCl2:MBC-11 1:1, t = 4 h", "result": 3.3, "unit": "%"},
      {"measurement": "Content of Ara-CMP (%)", "setting": "Tartrate buffer, MgCl2 1.73 mmol/L, MgCl2:MBC-11 1:1, t = 8 h", "result": 4.1, "unit": "%"},
      {"measurement": "Content of Ara-CMP (%)", "setting": "Tartrate buffer, MgCl2 1.73 mmol/L, MgCl2:MBC-11 1:1, t = 24 h", "result": 7.3, "unit": "%"},
      {"measurement": "Content of Ara-CMP (%)", "setting": "Tartrate buffer, MgCl2 3.5 mmol/L, MgCl2:MBC-11 2:1, t = 0 h", "result": 2.5, "unit": "%"},
      {"measurement": "Content of Ara-CMP (%)", "setting": "Tartrate buffer, MgCl2 3.5 mmol/L, MgCl2:MBC-11 2:1, t = 4 h", "result": 3.0, "unit": "%"},
      {"measurement": "Content of Ara-CMP (%)", "setting": "Tartrate buffer, MgCl2 3.5 mmol/L, MgCl2:MBC-11 2:1, t = 8 h", "result": 3.5, "unit": "%"},
      {"measurement": "Content of Ara-CMP (%)", "setting": "Tartrate buffer, MgCl2 3.5 mmol/L, MgCl2:MBC-11 2:1, t = 24 h", "result": 5.5, "unit": "%"},
      {"measurement": "Content of Ara-CMP (%)", "setting": "Tartrate buffer, MgCl2 20 mmol/L, MgCl2:MBC-11 ~12:1, t = 0 h", "result": 2.6, "unit": "%"},
      {"measurement": "Content of Ara-CMP (%)", "setting": "Tartrate buffer, MgCl2 20 mmol/L, MgCl2:MBC-11 ~12:1, t = 4 h", "result": 2.7, "unit": "%"},
      {"measurement": "Content of Ara-CMP (%)", "setting": "Tartrate buffer, MgCl2 20 mmol/L, MgCl2:MBC-11 ~12:1, t = 8 h", "result": 3.0, "unit": "%"},
      {"measurement": "Content of Ara-CMP (%)", "setting": "Tartrate buffer, MgCl2 20 mmol/L, MgCl2:MBC-11 ~12:1, t = 24 h", "result": 3.8, "unit": "%"},
      {"measurement": "Content of Ara-CMP (%)", "setting": "Tartrate buffer, no MgCl2, t = 0 h", "result": 3.8, "unit": "%"},
      {"measurement": "Content of Ara-CMP (%)", "setting": "Tartrate buffer, no MgCl2, t = 4 h", "result": 5.3, "unit": "%"},
      {"measurement": "Content of Ara-CMP (%)", "setting": "Tartrate buffer, no MgCl2, t = 8 h", "result": 6.6, "unit": "%"},
      {"measurement": "Content of Ara-CMP (%)", "setting": "Tartrate buffer, no MgCl2, t = 24 h", "result": 11.7, "unit": "%"},
      {"measurement": "Content of Ara-CMP (%)", "setting": "Water, MgCl2 0.87 mmol/L, MgCl2:MBC-11 1:2, t = 0 h", "result": 2.6, "unit": "%"},
      {"measurement": "Content of Ara-CMP (%)", "setting": "Water, MgCl2 0.87 mmol/L, MgCl2:MBC-11 1:2, t = 4 h", "result": 3.3, "unit": "%"},
      {"measurement": "Content of Ara-CMP (%)", "setting": "Water, MgCl2 0.87 mmol/L, MgCl2:MBC-11 1:2, t = 8 h", "result": 4.0, "unit": "%"},
      {"measurement": "Content of Ara-CMP (%)", "setting": "Water, MgCl2 0.87 mmol/L, MgCl2:MBC-11 1:2, t = 24 h", "result": 6.8, "unit": "%"},
      {"measurement": "Content of Ara-CMP (%)", "setting": "Water, MgCl2 1.73 mmol/L, MgCl2:MBC-11 1:1, t = 0 h", "result": 2.5, "unit": "%"},
      {"measurement": "Content of Ara-CMP (%)", "setting": "Water, MgCl2 1.73 mmol/L, MgCl2:MBC-11 1:1, t = 4 h", "result": 2.8, "unit": "%"},
      {"measurement": "Content of Ara-CMP (%)", "setting": "Water, MgCl2 1.73 mmol/L, MgCl2:MBC-11 1:1, t = 8 h", "result": 3.2, "unit": "%"},
      {"measurement": "Content of Ara-CMP (%)", "setting": "Water, MgCl2 1.73 mmol/L, MgCl2:MBC-11 1:1, t = 24 h", "result": 4.6, "unit": "%"},
      {"measurement": "Content of Ara-CMP (%)", "setting": "Water, MgCl2 3.5 mmol/L, MgCl2:MBC-11 2:1, t = 0 h", "result": 2.7, "unit": "%"},
      {"measurement": "Content of Ara-CMP (%)", "setting": "Water, MgCl2 3.5 mmol/L, MgCl2:MBC-11 2:1, t = 4 h", "result": 2.7, "unit": "%"},
      {"measurement": "Content of Ara-CMP (%)", "setting": "Water, MgCl2 3.5 mmol/L, MgCl2:MBC-11 2:1, t = 8 h", "result": 2.9, "unit": "%"},
      {"measurement": "Content of Ara-CMP (%)", "setting": "Water, MgCl2 3.5 mmol/L, MgCl2:MBC-11 2:1, t = 24 h", "result": 3.7, "unit": "%"},
      {"measurement": "Content of Ara-CMP (%)", "setting": "Water, MgCl2 20 mmol/L, MgCl2:MBC-11 ~12:1, t = 0 h", "result": 2.6, "unit": "%"},
      {"measurement": "Content of Ara-CMP (%)", "setting": "Water, MgCl2 20 mmol/L, MgCl2:MBC-11 ~12:1, t = 4 h", "result": 2.7, "unit": "%"},
      {"measurement": "Content of Ara-CMP (%)", "setting": "Water, MgCl2 20 mmol/L, MgCl2:MBC-11 ~12:1, t = 8 h", "result": 2.9, "unit": "%"},
      {"measurement": "Content of Ara-CMP (%)", "setting": "Water, MgCl2 20 mmol/L, MgCl2:MBC-11 ~12:1, t = 24 h", "result": 3.5, "unit": "%"},
      {"measurement": "increase in Ara-CMP content", "setting": "previous observations (before addition of MgCl2), 8 hours at 25° C.", "result": "~2", "unit": "%"}
    ]}
  ]
}
